# Results as given in ChEMBL document CHEMBL1148845, “Chiral tetrahydroquinoline derivatives as potent anti-hyperalgesic agents in animal models of sustained inflammation and chronic neuropathic pain” (Bioorg Med Chem Lett, 2007).
# Activity calls are given as the source filed them. No cut-off for these calls is given here.
# Experiments:
# Mus musculus [1] = test: Antinociceptive effect in po dosed mouse assessed as reduction of licking time in late phase by formalin test; assay type: functional
# Mus musculus [2] = test: Antinociceptive effect in mouse assessed as reduction of licking time in late phase administered at 0.1 mg/kg, ip before 10 mins of formalin administration; assay type: functional; set-up: scale not given: the % may be the effect or the level left; settings: route intraperitoneal
# [3] = Half life in rat at 1 mg/kg, iv or 3 mg/kg, po; assay type: ADME, organism-based; settings: in vivo
# [4] = Oral bioavailability in dog at 3 mg/kg, po; assay type: ADME, organism-based, Canis lupus familiaris; settings: in vivo
# [5] = Oral bioavailability in rat at 3 mg/kg, po; assay type: ADME, organism-based; settings: in vivo
# Glutamate NMDA receptor = test: Displacement of [3H]glycine from NMDA receptor in rat cerebral cortex membrane; assay type: cell membranes
# [6] = Half life in dog at 1 mg/kg, iv or 3 mg/kg, po; assay type: ADME, organism-based, Canis lupus familiaris; settings: in vivo
# [7] = Plasma clearance in rat at 1 mg/kg, iv or 3 mg/kg, po; assay type: ADME, organism-based
# [8] = Plasma clearance in dog at 1 mg/kg, iv or 3 mg/kg, po; assay type: ADME, organism-based, Canis lupus familiaris
# Rattus norvegicus [9] = test: Analgesic effect in po dosed CCI rat model assessed as reduction of thermal hyperalgesia after 1 hr; assay type: functional
# [10] = Oral bioavailability in rat; assay type: ADME, organism-based; settings: in vivo
# Mus musculus [11] = test: Antinociceptive effect in ip dosed mouse assessed as reduction of licking time in early phase administered before 30 mins of formalin administration; settings: 0.5 h
# Mus musculus [12] = test: Antinociceptive effect in ip dosed mouse assessed as reduction of licking time in late phase administered before 30 mins of formalin administration; settings: 0.5 h
# Rattus norvegicus [13] = species: Rattus norvegicus; test: Inhibition of windup in rat spinal cord at 10 uM; assay type: functional, organism-based
smiles,measurement,setting,value
C[C@]12N[C@H](Cc3ccccc31)c1ccccc12 [DIZOCILPINE],ED50,Mus musculus [1],0.1 mg/kg
same,Activity,Mus musculus [2],50%
O=C(/C=C1\CC(C(=O)[O-])Nc2cc(Cl)ccc21)Nc1ccccc1.[Na+] (stereo unspecified),half-life,[3],1.4 h
same,bioavailability,[4],64%
same,bioavailability,[5],85%
same,Log Ki,Glutamate NMDA receptor,-7.42
same,half-life,[6],2.4 h
same,clearance,[7],3.5 mL/min/kg
same,clearance,[8],1.4 mL/min/kg
O=C([O-])c1[nH]c2cc(Cl)cc(Cl)c2c1/C=C1\CCN(c2ccccc2)C1=O.[Na+],Log Ki,Glutamate NMDA receptor,-7.56
same,ED50,Mus musculus [1],0.6 mg/kg
same,ED50,Rattus norvegicus [9],2.95 mg/kg
O=C([O-])C1C/C(=C2/CCN(c3ccccc3)C2=O)c2ccc(Cl)cc2N1.[Na+] (stereo unspecified),bioavailability,[10],76%
O=C([O-])C1C/C(=C2/CC(=O)N(c3ccccc3)C2=O)c2ccc(Cl)cc2N1.[Na+] (stereo unspecified),Log Ki,Glutamate NMDA receptor,-5.64
CN1CC[C@]23c4c5ccc(O)c4O[C@H]2[C@@H](O)C=C[C@H]3[C@H]1C5 [MORPHINE],ED50,Mus musculus [11],0.73 mg/kg
same,ED50,Mus musculus [12],0.56 mg/kg
O=C([O-])C1C/C(=C2/NC(=O)N(c3ccccc3)C2=O)c2ccc(Cl)cc2N1.[Na+] (stereo unspecified),Log Ki,Glutamate NMDA receptor,-7.8
O=C([O-])[C@H]1C/C(=C2/CCN(c3ccccc3)C2=O)c2ccc(Cl)cc2N1.[Na+],Activity,Rattus norvegicus [13],Active
same,ED50,Mus musculus [1],0.14 mg/kg
same,ED50,Rattus norvegicus [9],0.14 mg/kg
O=C([O-])C1C/C(=C2/CCCN(c3ccccc3)C2=O)c2ccc(Cl)cc2N1.[Na+] (stereo unspecified),Log Ki,Glutamate NMDA receptor,-5.71
